{"source": "patent US4544665A", "about": "“1-Aryl-3-azabicyclo[3.2.0]heptanes” (American Cyanamid Company, priority 1983, dated 1985)", "key": {"[1]": {"target": "T1, human platelet membranes (Homo sapiens, UniProt P31645)", "T1 construct": "from tissue; host or cells: human platelets (membranes of sonicated platelet concentrates)", "T1 sequence (P31645 whole entry)": "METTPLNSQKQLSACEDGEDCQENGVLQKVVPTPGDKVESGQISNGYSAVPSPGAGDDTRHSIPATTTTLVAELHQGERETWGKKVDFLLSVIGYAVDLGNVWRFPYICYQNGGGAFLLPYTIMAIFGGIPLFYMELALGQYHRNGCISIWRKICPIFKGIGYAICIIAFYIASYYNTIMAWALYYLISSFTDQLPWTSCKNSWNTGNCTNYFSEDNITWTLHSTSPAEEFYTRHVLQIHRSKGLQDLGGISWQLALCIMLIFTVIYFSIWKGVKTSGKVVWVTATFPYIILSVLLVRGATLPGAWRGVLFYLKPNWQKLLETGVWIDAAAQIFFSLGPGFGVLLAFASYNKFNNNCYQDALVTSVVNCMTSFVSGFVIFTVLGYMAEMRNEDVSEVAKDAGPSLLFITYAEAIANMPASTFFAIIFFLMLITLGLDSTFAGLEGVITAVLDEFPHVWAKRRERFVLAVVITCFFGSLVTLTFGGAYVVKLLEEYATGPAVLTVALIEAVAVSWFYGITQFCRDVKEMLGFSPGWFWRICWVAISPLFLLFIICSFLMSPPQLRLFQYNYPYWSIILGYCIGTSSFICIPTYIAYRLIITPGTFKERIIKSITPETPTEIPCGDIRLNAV", "assay": "Platelet imipramine binding ([3H]-imipramine)", "parameters": "key to Platelet Imipramine Binding, Result: Active: A compound is considered active if greater than about 50% inhibition is achieved at a concentration of about 10 μM", "conditions": "10 μM test compound, 60 min at 0° C.; for inhibition at 10 µM: [3H]imipramine", "description": "The activity of the compounds of this invention as anti-depressant agents was also shown in the following test which measures the ability of a test compound to inhibit [^3 H]-imipramine binding to human platelet membranes. Human platelet concentrates were diluted about 1:20 with antiprotease containing buffer of the following composition:\nApproximately 0.12M: sodium chloride\nApproximately 0.05M: tris buffer\nApproximately 0.005N: potassium chloride\nApproximately 0.025: μg/ml aprotinin\nApproximately 0.5: μg/ml pepstatin\nApproximately 2×10^-5 N: bacitracin\nApproximately 3 mN: ethylenediaminetetraacetic acid\nApproximately 1 mN: ethyleneglycol-bis-(β-aminoethyl ether)-N,N'-tetracetic acid\nSuch buffer was kept at about pH 6.8 to prevent platelet release and aggregation. The diluted platelets were centrifuged at about 2,500 g and then resuspended in about 50 volumes of the same buffer. The cells were then ruptured with a Branson sonicator while the suspension was maintained in an ice bath. The ruptured cells were then centrifuged at about 18,000 g, resuspended in fresh buffer and recentrifuged at about 18,000 g. The resulting membranes were then diluted with the above antiprotease buffer, which had been adjusted to about pH 7.4, and to a protein concentration of about 3.0 mg/ml.\nThe test compounds were dissolved in dimethylsulfoxide at a concentration of about 50 mM and then diluted about 1:10 in either water, about 0.1M hydrochloric acid or about 0.1M sodium hydroxide. They were then diluted about 1:100 in buffer to about 50 μM, and about 50 μl of this stock solution was placed in triplicate test tubes. The tubes were cooled to about 0° C. and about 200 μl of the following mixture were added:\nAbout 100 μl of 3 mg/ml membrane in buffer\nAbout 50 μl of 15 nM[^3 H]imipramine in buffer\nThe tubes were incubated for about 60 minutes at about 0° C. Controls contain either buffer alone (100%) or about 10 μM final of desmethylimipramine (DMI). The samples were diluted with about 5 ml of buffer [0.12M-sodium chloride, 0.05M-tris buffer, 0.005M-potassium chloride (pH 7.4)], vacuum filtered and washed twice with about 5 ml of buffer. Radioactivity was measured in a liquid scintillation counter and the degree of binding was calculated."}, "[2]": {"system": "mice", "assay": "Tetrabenazine-induced depression (exploratory behavior)", "assay_type": "in vivo", "parameters": "key to Tetrabenazine-Induced Depression, Result: Active: A compound is considered active if 3 or more of the 10 mice are protected against the tetrabenazine-induced effects", "conditions": "about 25 mg/kg i.p., 30 min before tetrabenazine methanesulfonate about 39 mg/kg i.p.; for Tetrabenazine-Induced Depression, mice protected of 10: protected/tested; for Tetrabenazine-Induced Depression, Result: tested 30 min later", "description": "The compounds of this invention are useful as anti-depressant agents in warm-blooded animals. The anti-depressant properties of these compounds were tested by measuring their ability to counteract depression induced in such animals by the administration of tetrabenazine methanesulfonate. Each test compound was administered intraperitoneally to 10 mice at a dose of about 25 mg/kg of body weight. Approximately thirty minutes later, tetrabenazine methanesulfonate was administered intraperitoneally to each mouse at a dose of about 39 mg/kg of body weight, which dose is known to depress markedly the exploratory behavior of normal mice. Approximately thirty minutes later, the mice were tested for their exploratory behavior as described by E. Greenblatt and A. C. Osterberg, Toxicology and Applied Pharmacology, 7: 556-578 (1965). A compound is considered active if 3 or more of the 10 mice are protected against the tetrabenazine-induced effects."}, "[3]": {"system": "mice", "assay": "Tetrabenazine-induced ptosis", "assay_type": "in vivo", "parameters": "key to Tetrabenazine-Induced Ptosis, Result: Active: A compound is considered active if 5 or more of 10 mice respond", "conditions": "about 25 mg/kg i.p.; for Tetrabenazine-Induced Ptosis, Result: 30 min before tetrabenazine methanesulfonate about 39 mg/kg i.p., examined 30 min later; for Tetrabenazine-Induced Ptosis, mice responding of 10: responders (about 75% or greater opening of palpebral aperture)/tested", "description": "Inhibition of tetrabenazine-induced ptosis is observed concomitantly with the inhibition of tetrabenazine-induced depression. Ptosis is defined as more than about 75% closure of palpebral aperture induced in animals by the administration of tetrabenazine methanesulfonate. The compounds were administered intraperitoneally at a dosage of about 25 mg per kilogram of body weight to groups of 10 mice. About thirty minutes later, tetrabenazine methanesulfonate was administered intraperitoneally to each mouse at a dose of about 39 mg/kg. About thirty minutes after the injection of tetrabenazine, the mice were placed on an observation disc and examined for approximately 10 seconds for inhibition of ptosis. […] A compound is considered active if 5 or more of 10 mice respond."}}, "data": [{"smiles": "CCO[C@@H]1C[C@@H]2CN(C)C[C@@]21c1cccc(OC)c1", "note": "(relative stereo) [7α-Ethoxy-1β-(m-methoxyphenyl)-3-methyl-3-azabicyclo[3.2.0]heptane]", "values": [{"measurement": "Platelet Imipramine Binding, Result", "setting": "[1]", "value": "Active"}, {"measurement": "inhibition at 10 µM", "setting": "[1]", "value": 92, "unit": "%"}]}, {"smiles": "Cc1ccc(C23CCC2CN(C)C3)cc1.O=C(O)/C=C/C(=O)O", "note": "(centres unmarked) [1-(p-Methylphenyl)-3-methyl-3-azabicyclo[3.2.0]heptane, and fumarate salt]", "values": [{"measurement": "Tetrabenazine-Induced Depression, mice protected of 10", "setting": "[2]", "value": "5/10"}, {"measurement": "Tetrabenazine-Induced Depression, Result", "setting": "[2]", "value": "Active"}, {"measurement": "Tetrabenazine-Induced Ptosis, Result", "setting": "[3]", "value": "Active"}, {"measurement": "Tetrabenazine-Induced Ptosis, mice responding of 10", "setting": "[3]", "value": "10/10"}]}, {"smiles": "COc1cccc(C23CCC2CN(C)C3)c1.O.O=C(O)/C=C/C(=O)O", "note": "(centres unmarked) [1-(m-Methoxyphenyl)-3-methyl-3-azabicyclo[3.2.0]heptane, and fumarate salt monohydrate]", "values": [{"measurement": "Platelet Imipramine Binding, Result", "setting": "[1]", "value": "Active"}, {"measurement": "inhibition at 10 µM", "setting": "[1]", "value": 99.8, "unit": "%"}]}, {"smiles": "CCO[C@H]1C[C@@H]2CN(C)C[C@@]21c1cccc(OC)c1", "note": "(relative stereo) [7β-Ethoxy-1β-(m-methoxyphenyl)-3-methyl-3-azabicyclo[3.2.0]heptan]", "values": [{"measurement": "Tetrabenazine-Induced Depression, mice protected of 10", "setting": "[2]", "value": "3/10"}, {"measurement": "Tetrabenazine-Induced Depression, Result", "setting": "[2]", "value": "Active"}, {"measurement": "Tetrabenazine-Induced Ptosis, Result", "setting": "[3]", "value": "Active"}, {"measurement": "Tetrabenazine-Induced Ptosis, mice responding of 10", "setting": "[3]", "value": "9/10"}, {"measurement": "Platelet Imipramine Binding, Result", "setting": "[1]", "value": "Active"}, {"measurement": "inhibition at 10 µM", "setting": "[1]", "value": 94, "unit": "%"}]}]}
